Measurements as given in patent publication US20210170033A1, “NOVEL CONJUGATES OF A PHARMACEUTICAL AGENT AND A MOIETY CAPABLE OF BINDING TO A GLUCOSE SENSING PROTEIN” (SANOFI, priority 2017, published 2021).
Where two headings read alike, the source gives them in different places.

Experiments:
hGLUT1 protein = molecular target: T1, hGLUT1 protein (Homo sapiens, UniProt P11166); test: NanoBRET-based GLUT1-binding assay in HEK cells; details: for BRET interference signal using Glucose: check of HiBit-tagged GLUT1 HEK cell line, stereoselective signal
T1 construct: fused on or other part: 11-amino-acid HiBiT peptide tag (small part of nanoluciferase) inserted into the first extracellular loop of GLUT1
T1 sequence (P11166 1-492): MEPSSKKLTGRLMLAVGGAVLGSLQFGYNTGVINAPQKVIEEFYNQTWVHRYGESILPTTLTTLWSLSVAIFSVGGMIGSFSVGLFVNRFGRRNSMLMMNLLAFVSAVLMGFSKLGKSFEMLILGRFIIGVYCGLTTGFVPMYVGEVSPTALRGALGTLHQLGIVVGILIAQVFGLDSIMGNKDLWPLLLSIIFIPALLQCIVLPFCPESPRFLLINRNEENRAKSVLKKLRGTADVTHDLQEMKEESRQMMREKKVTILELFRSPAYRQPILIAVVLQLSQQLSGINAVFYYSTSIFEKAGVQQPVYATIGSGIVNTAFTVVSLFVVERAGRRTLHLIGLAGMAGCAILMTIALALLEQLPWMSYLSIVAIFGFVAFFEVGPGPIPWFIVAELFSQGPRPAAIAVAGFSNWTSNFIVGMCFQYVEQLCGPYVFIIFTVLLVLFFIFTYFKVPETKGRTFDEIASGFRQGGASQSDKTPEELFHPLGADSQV
Experimental: 3. NanoBRET-Based GLUT1-Binding Assays in HEK Cells
To measure binding of compounds to the hGLUT1 protein, the newly-developed NanoBRET platform from Promega is used. In this technology binding is measured via Foerster Resonance Energy Transfer. Foerster Resonance Energy Transfer is based on a direct, radiation-free energy transfer from donor to acceptor and can only take place when donor and acceptor are within nm distance. As donor energy the bioluminescence light of nanoluciferase is used, therefore this application is referred to as BRET (Bioluminescence Resonance Energy Transfer). Nanoluciferase is a protein that emits light when the appropriate substrate is available.
Nanoluciferase is attached to GLUT1 via protein complementation using the HiBit protein tagging system (Promega). […] The HiBit peptide tag is used as a landing pad for the so called Large Bit protein that is commercially available from Promega and added to the medium. Large Bit has a high affinity for HiBit tag resulting in protein complementation to a fully-functional nanoluciferase, which is used as energy donor in the NanoBRET assay system.
To obtain a HEK cell line expressing HiBit-tagged GLUT1, cells were transfected with the appropriate construct placed behind the tetracycline-inducible promoter (Flipin T-Rex system from Thermo Fisher, K650001) and a cell line was generated.
As NanoBRET acceptor a GLUT1 inhibitor described by Siebeneicher et al. (Siebeneicher H., Bauser M., Buchmann B., et al. Identification of novel GLUT inhibitors. Bioorganic & Medicinal Chemistry Letters 2016; 26(7):1732-7; compound 53) was reduced to the aminobenzyl derivative and coupled to the fluorophore NanoBRET618 (Promega) and is referred to as “Bayer+NB618”.
For the assay 50 μl with 7500 cells (HiBit-tagged GLUT1 HEK cells) are plated into 384 poly-D-lysine-coated black μClear plates (Greiner) in DMEM (Gibco 61966) medium supplemented with 10% tetracycline-free FCS (PAN P30-3602) and 300 ng/ml doxycycline (Sigma 9891) to induce the induction of the HiBit-tagged GLUT1 protein.
Incubation of Compound and Acceptor Molecule
After getting adherent by overnight incubation at 37° C. and 10% CO2, the medium is replaced by 10 μl imaging medium (1% BSA (Sigma A9576), 5 mM Hepes (Gibco 15630), 0.35 mM Na-bicarbonate (Gibco 11360-039), 1 mM Na-Pyruvate (Gibco 11360) in PBS buffer (Gibco14040)). 5 μl Bayer+NB618 (in imaging medium, final concentration 75 nM) is added and the plates are incubated for 15 minutes statically at room temperature.
A serial dilution of the test compounds is prepared in imaging medium and added in 10 μl to the respective wells. As a positive control for displacement values from wells incubated with 200 mM D-Glucose (Sigma G8769) are used. Plates are incubated for 30 minutes at room temperature without shaking.
Generating Luminescence and Measuring Fluorescence
This detection solution is made in the buffer provided. After addition of the detection reagent, the samples are incubated for 30 minutes without shaking and subsequently the luminescence and fluorescence emissions are measured simultaneously on the PHERAstar FSX (BMG Labtech) using the appropriate dual filter setup. This filter setup is made up of a 450-80 nm band pass filter to measure the donor signal peaking at 460 nm and a long pass filter starting at 610 nm to measure the fluorescence emission of NanoBRET 618, which peaks at 621 nm and continues beyond 700 nm.
From the raw luminescence and fluorescence values, the NanoBRET ratios are calculated, being the ratio of the fluorescence signal divided by the luminescence signal. Mean values are obtained from at least duplicates.
For percentage inhibition results, the mean value of the not-compound-treated cells is set as 0%. The mean BRET value of the cells treated with 200 mM glucose is used for maximal inhibition. All other mean values were calculated to this relation. […]

A2780 cells = test: Deoxy-glucose uptake assay in A2780 cells (14C 2-deoxy-D-glucose transport); format: cell-based; details: Homo sapiens, 20 min; inhibition of 14C 2-deoxy-D-glucose transport into A2780 cells; 20 min compound incubation; read-out: IC50
How it was run: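 Radiolabelled 2-deoxy-D-glucose transport over 20 min was scintillation-counted in A2780 cells, grown 48 h, after 20 min compound exposure in KRB. Untreated cells gave the 100% reference, with Cytochalasin B defining background. IC50 values were regressed from triplicate means across 7 or 14 concentrations.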

[1] = test system: A2780 Human Carcinoma Cells; test: Glucose displacement assay (ATP measurement, CellTiter-Glo); format: cell-based; details: ATP measurement in A2780 cells, 0.5 μM rotenone
How it was run: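 Cells were glucose-starved for 2 h in 1% FCS medium, then treated with compound in KRB buffer for 20 min at 37 °C with rotenone at 0.5 μM final. Glucose (typically 0.1–10 mM) was added for 15 min at 37 °C. ATP was measured by CellTiter-Glo luminescence.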

[2] = displacement of Bayer+NB618 (75 nM) from HiBit-tagged GLUT1 HEK cells, mean of measurements done twice in duplo, read-out: IC50
[3] = 1 mM glucose, read-out: IC50 [μM] at 1 mM glucose
[4] = 10 mM glucose, read-out: IC50 [μM] at 10 mM glucose

IC50 (A2780 cells) [µM] | IC50 (hGLUT1 protein; [2]) [µM] | IC50 [1, 3] [µM] | IC50 [1, 4] [µM] | SMILES | IC50 (hGLUT1 protein) [µM] | BRET interference signal using Glucose (hGLUT1 protein)
0.4 | 9.49 | 0.35 | 4.55 | COc1cc(OCc2ccc3c(c2)nnn3C)c(Cl)cc1C(=O)O[C@H]1[C@@H](OC)O[C@H](CO)[C@@H](O)[C@@H]1O [Example 340] | – | –
3.9 | > 30 | – | – | C#CCCCn1c(COc2cc(OC)c(C(=O)O[C@@H]3[C@@H](O)[C@@H](OC)O[C@H](CO)[C@H]3O)cc2Cl)nc2ccccc21 [Example 367] | – | –
0.4 | 6.98 | – | – | COC(=O)/C=C/c1ccc(COc2cc(OC)c(C(=O)N[C@H]3[C@@H](OC)O[C@H](CO)[C@@H](O)[C@@H]3O)cc2Cl)cc1 [Example 370] | – | –
0.9 | 17.2 | – | – | COc1cc(OCc2cccc(OCCCC(=O)OC(C)(C)C)c2)c(Cl)cc1C(=O)N[C@H]1[C@@H](OC)O[C@H](CO)[C@@H](O)[C@@H]1O [Example 393] | – | –
0.7 | 8.3 | 3.07 | 9.21 | COc1cc(OCc2cccc(NC(=O)OC(C)(C)C)c2)c(Cl)cc1C(=O)N[C@H]1[C@H](OC)O[C@H](CO)[C@@H](O)[C@@H]1O [Example 415] | – | –
– | 9.77 | 1.64 | 22.4 | COC(=O)c1ccn2cc(COc3cc(OC)c(C(=O)N[C@H]4[C@@H](OC)O[C@H](CO)[C@@H](O)[C@@H]4O)cc3Cl)nc2c1 [Example 416] | – | –

The next lines start with the molecule.

SMILES | IC50 (A2780 cells) [µM] | IC50 (hGLUT1 protein; [2]) [µM] | IC50 [1, 3] [µM] | IC50 [1, 4] [µM] | IC50 (hGLUT1 protein) [µM] | BRET interference signal using Glucose (hGLUT1 protein)
O=C[C@H](O)[C@@H](O)[C@H](O)[C@H](O)CO [D-Glucose, reference compound] | – | – | – | – | 5330 ± 560 | decreases BRET
CO[C@H]1O[C@H](CO)[C@@H](O)[C@H](O)[C@H]1OC(=O)c1cc(Cl)c(OCc2cccc(CNC(=O)OC(C)(C)C)c2)c(Cl)c1C [Example 202a] | 1.8 | 4.41 | – | – | – | –
C#CCCCn1c(COc2c(Cl)cc(C(=O)O[C@H]3[C@@H](OC)O[C@H](CO)[C@@H](O)[C@@H]3O)c(C)c2Cl)nc2ccccc21 [Example 212] | 0.1 | 0.24 | < 0.12 | 0.288 | – | –
CO[C@H]1O[C@H](CO)[C@@H](O)[C@H](O)[C@H]1NC(=O)c1cc(Cl)c(OCc2nc3ccccc3n2CCCCCCNC(=O)OC(C)(C)C)c(Cl)c1C [Example 305] | 0.1 | 2.83 | – | – | – | –
COC(=O)[C@H](CCC(=O)NCc1cccc(COc2c(Cl)cc(C(=O)O[C@H]3[C@@H](OC)O[C@H](CO)[C@@H](O)[C@@H]3O)c(C)c2Cl)c1)NC(=O)OC(C)(C)C [Example 306] | 3 | 0.19 | 1.86 | 7.95 | – | –
C#CCCCCCn1c(COc2c(Cl)cc(C(=O)O[C@H]3[C@@H](OC)O[C@H](CO)[C@@H](O)[C@@H]3O)c(C)c2Cl)nc2ccccc21 [Example 320] | 0.02 | 0.22 | 0.51 | 1.13 | – | –
C#CCCCn1c(COc2cc(OC)c(C(=O)N[C@H]3[C@@H](OC)O[C@H](CO)[C@@H](O)[C@@H]3O)cc2Cl)nc2ccccc21 [Example 328] | 1.6 | 13.6 | 0.56 | > 33 | – | –
O=C[C@@H](O)[C@H](O)[C@@H](O)[C@@H](O)CO [L-Glucose, reference compound] | – | – | – | – | – | no effect on BRET
